“And” between values parts separate entries of the source, which are not always exact repeats. Identical values can stand only once. Toxic doses and inconclusive results are not listed.
System: BDF1 mice, P388 leukemia ip, median survival T/C
Assay: NCI In Vivo Anticancer Drug Screen. Data for tumor model P388 Leukemia (intraperitoneal) in B6D2F1 (BDF1) mice
Conditions: endpoint: median survival time, higher = longer survival
Method in brief: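 Steps: implant the tumour, treat one group with compound and another with vehicle, record survival, then divide treated by control.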

[1] = dose: 12.5 mg/kg/injection, schedule: Q01DX009 (ip), vehicle: water
[2] = dose: 25.0 mg/kg/injection, schedule: Q01DX009 (ip), vehicle: water
[3] = dose: 50.0 mg/kg/injection, schedule: Q01DX009 (ip), vehicle: saline with Tween-80
[4] = dose: 100.0 mg/kg/injection, schedule: Q01DX009 (ip), vehicle: saline with Tween-80
[5] = dose: 50.0 mg/kg/injection, schedule: Q01DX009 (ip), vehicle: saline
[6] = dose: 100.0 mg/kg/injection, schedule: Q01DX009 (ip), vehicle: saline
[7] = dose: 200.0 mg/kg/injection, schedule: Q01DX009 (ip), vehicle: saline
[8] = dose: 200.0 mg/kg/injection, schedule: Q01DX009 (ip), vehicle: saline with Tween-80

CCCCCCCCCCCC(=O)NC1CC(O[C@H]2C[C@](O)(C(=O)CO)Cc3c(O)c4c(c(O)c32)C(=O)c2c(OC)cccc2C4=O)OC(C)C1O (stereo partly specified)
T/C (dose: 0.78 mg/kg/injection, schedule: Q01DX009 (ip), vehicle: water): 113 % of control
T/C (dose: 3.13 mg/kg/injection, schedule: Q01DX009 (ip), vehicle: water): 159 % of control
T/C (dose: 6.25 mg/kg/injection, schedule: Q01DX009 (ip), vehicle: water): 168 % of control
T/C [1]: 240 % of control
T/C [2]: 159 % of control

CC(=O)Nc1ccc(SSSc2ccc(NC(C)=O)cc2)cc1
T/C [1]: 100 % of control
T/C [2]: 96 % of control
T/C (dose: 50.0 mg/kg/injection, schedule: Q01DX009 (ip), vehicle: water): 101 % of control
T/C (dose: 100.0 mg/kg/injection, schedule: Q01DX009 (ip), vehicle: water): 105 % of control
T/C (dose: 200.0 mg/kg/injection, schedule: Q01DX009 (ip), vehicle: water): 111 % of control and 118 % of control

CCOC(=O)c1oc2ccccc2c1CN
T/C [3]: 107 % of control
T/C [4]: 107 % of control

CN(N=O)C(=O)NCCSSCCNC(=O)N(C)N=O
T/C (dose: 53.0 mg/kg/injection, schedule: Q04DX003 (ip), vehicle: saline with Tween-80): 120 % of control
T/C (dose: 80.0 mg/kg/injection, schedule: Q04DX003 (ip), vehicle: saline with Tween-80): 170 % of control
T/C (dose: 120.0 mg/kg/injection, schedule: Q04DX003 (ip), vehicle: saline with Tween-80): 100 % of control

COc1cc(N)ccc1C(=O)O
T/C (dose: 0.39 mg/kg/injection, schedule: Q01DX009 (ip), vehicle: saline): 103 % of control
T/C (dose: 0.78 mg/kg/injection, schedule: Q01DX009 (ip), vehicle: saline): 99 % of control
T/C (dose: 3.12 mg/kg/injection, schedule: Q01DX009 (ip), vehicle: saline): 115 % of control
T/C [5]: 95 % of control
T/C [6]: 101 % of control
T/C [7]: 96 % of control
T/C (dose: 400.0 mg/kg/injection, schedule: Q01DX009 (ip), vehicle: saline): 104 % of control

O=S(=O)(O)c1ccc(O)cc1
T/C [6]: 92 % of control
T/C (dose: 100.0 mg/kg/injection, schedule: Q04DX003 (ip), vehicle: saline): 105 % of control
T/C [7]: 88 % of control
T/C (dose: 200.0 mg/kg/injection, schedule: Q04DX003 (ip), vehicle: saline): 115 % of control
T/C (dose: 400.0 mg/kg/injection, schedule: Q04DX003 (ip), vehicle: saline): 110 % of control

C1CC[N-]CC1.[Cl][Pt+2][Cl].[NH-]C1CC1
T/C (dose: 1.5 mg/kg/injection, schedule: Q01DX005 (ip), vehicle: distilled water + Tween-80): 153 % of control
T/C (dose: 1.5 mg/kg/injection, schedule: Q01DX005 (ip), vehicle: water): 150 % of control
T/C (dose: 3.0 mg/kg/injection, schedule: Q01DX005 (ip), vehicle: water): 164 % of control
T/C (dose: 6.0 mg/kg/injection, schedule: Q01DX005 (ip), vehicle: distilled water + Tween-80): 157 % of control
T/C (dose: 6.0 mg/kg/injection, schedule: Q01DX005 (ip), vehicle: water): 185 % of control
T/C (dose: 12.0 mg/kg/injection, schedule: Q01DX005 (ip), vehicle: distilled water + Tween-80): 176 % of control
T/C (dose: 12.0 mg/kg/injection, schedule: Q01DX005 (ip), vehicle: water): 192 % of control

COc1cc(NCCCCC(C)N)c2nccc(C)c2c1 (stereo unspecified)
T/C [5]: 105 % of control

Cc1cccc(C(=O)CC(O)(C(F)(F)F)C(F)(F)F)c1
T/C (dose: 100.0 mg/kg/injection, schedule: Q01DX001 (ip), vehicle: saline with Tween-80): 104 % of control
T/C (dose: 200.0 mg/kg/injection, schedule: Q01DX001 (ip), vehicle: saline with Tween-80): 100 % of control
T/C (dose: 400.0 mg/kg/injection, schedule: Q01DX001 (ip), vehicle: saline with Tween-80): 109 % of control

CCOC(=O)C1=C(O)Cc2c(nc3ccc(C)cn3c2=O)C1
T/C [3]: 100 % of control
T/C [4]: 96 % of control
T/C [8]: 98 % of control

CCOC(=O)C(Cc1ccc(C)cc1)(NC(C)=O)C(=O)OCC
T/C [4]: 92 % of control
T/C [8]: 99 % of control
T/C (dose: 400.0 mg/kg/injection, schedule: Q01DX009 (ip), vehicle: saline with Tween-80): 101 % of control

OCC1OC(n2cnc3c(SCc4ccccc4)nc(NO)nc32)C(O)C1O (stereo unspecified)
T/C (dose: 200.0 mg/kg/injection, schedule: Q01DX009 (ip), vehicle: acetone): 100 % of control

Cc1cccnc1NC(=O)/C=C/C(=O)O
T/C (dose: 3.12 mg/kg/injection, schedule: Q01DX001 (ip), vehicle: saline): 100 % of control
T/C (dose: 6.25 mg/kg/injection, schedule: Q01DX001 (ip), vehicle: saline): 100 % of control
T/C (dose: 12.5 mg/kg/injection, schedule: Q01DX001 (ip), vehicle: saline): 100 % of control
T/C (dose: 12.5 mg/kg/injection, schedule: Q01DX009 (ip), vehicle: saline): 95 % of control
T/C (dose: 12.5 mg/kg/injection, schedule: Q04DX003 (ip), vehicle: saline): 100 % of control
T/C (dose: 18.0 mg/kg/injection, schedule: Q01DX001 (ip), vehicle: saline): 109 % of control
T/C (dose: 25.0 mg/kg/injection, schedule: Q01DX009 (ip), vehicle: saline): 100 % of control
T/C (dose: 28.0 mg/kg/injection, schedule: Q01DX001 (ip), vehicle: saline): 100 % of control
T/C (dose: 40.0 mg/kg/injection, schedule: Q01DX001 (ip), vehicle: saline): 104 % of control

N#CN=CN1CC=C(c2ccc(Cl)cc2)CC1
T/C [3]: 98 % of control
T/C [4]: 93 % of control
T/C [8]: 94 % of control

COc1cc2c3c(c4ccc(OC)c(OC)c4c2cc1OC)CN1CCC[C@@H]1C3
T/C (dose: 1.25 mg/kg/injection, schedule: Q01DX010 (ip), vehicle: saline): 113 % of control
T/C (dose: 2.5 mg/kg/injection, schedule: Q01DX010 (ip), vehicle: saline): 154 % of control
T/C (dose: 6.0 mg/kg/injection, schedule: Q01DX010 (ip), vehicle: water): 150 % of control
T/C (dose: 8.0 mg/kg/injection, schedule: Q01DX010 (ip), vehicle: water): 170 % of control
T/C (dose: 10.0 mg/kg/injection, schedule: Q01DX010 (ip), vehicle: saline): 150 % of control
T/C (dose: 10.0 mg/kg/injection, schedule: Q01DX010 (ip), vehicle: water): 90 % of control

O=C(NCCCl)OCC(F)(F)F
T/C (dose: 50.0 mg/kg/injection, schedule: Q01DX005 (ip), vehicle: Klucel (hydroxypropylcellulose) (HPC)): 113 % of control
T/C (dose: 100.0 mg/kg/injection, schedule: Q01DX005 (ip), vehicle: Klucel (hydroxypropylcellulose) (HPC)): 97 % of control
T/C (dose: 200.0 mg/kg/injection, schedule: Q01DX005 (ip), vehicle: Klucel (hydroxypropylcellulose) (HPC)): 108 % of control

CC(=O)C1(O)Cc2c(O)c3c(c(O)c2C(OC2CC(N)C(O)C(C)O2)C1)C(=O)c1ccccc1C3=O (stereo unspecified)
T/C (dose: 324.0 micrograms/kg/injection, schedule: Q04DX003 (ip), vehicle: water): 177 % of control
T/C (dose: 540.0 micrograms/kg/injection, schedule: Q04DX003 (ip), vehicle: water): 220 % of control
T/C (dose: 900.0 micrograms/kg/injection, schedule: Q04DX003 (ip), vehicle: water): 116 % of control
T/C (dose: 1500.0 micrograms/kg/injection, schedule: Q04DX003 (ip), vehicle: water): 90 % of control

C[N+](C)(C)Cc1ccccc1/C(=N\O)c1ccccc1
T/C (dose: 5.0 mg/kg/injection, schedule: Q01DX009 (ip), vehicle: saline): 109 % of control
T/C (dose: 10.0 mg/kg/injection, schedule: Q01DX009 (ip), vehicle: saline): 91 % of control

N=[N+]=CC(=O)CC(N)C(=O)O (stereo unspecified)
T/C (dose: 100.0 mg/kg/injection, schedule: Q01DX001 (ip), vehicle: saline sonified): 95 % of control
T/C (dose: 200.0 mg/kg/injection, schedule: Q01DX001 (ip), vehicle: saline sonified): 86 % of control
T/C (dose: 400.0 mg/kg/injection, schedule: Q01DX001 (ip), vehicle: saline sonified): 95 % of control

COc1cccc(OC)c1C(c1c(OC)cccc1OC)c1c(OC)cccc1OC
T/C (dose: 6.25 mg/kg/injection, schedule: Q01DX009 (ip), vehicle: saline with Tween-80): 115 % of control
T/C (dose: 12.5 mg/kg/injection, schedule: Q01DX009 (ip), vehicle: saline with Tween-80): 100 % of control
T/C (dose: 25.0 mg/kg/injection, schedule: Q01DX009 (ip), vehicle: saline with Tween-80): 109 % of control
T/C (dose: 25.0 mg/kg/injection, schedule: Q04DX003 (ip), vehicle: saline with Tween-80): 104 % of control
T/C [4]: 120 % of control
T/C (dose: 100.0 mg/kg/injection, schedule: Q04DX003 (ip), vehicle: saline with Tween-80): 116 % of control

Reference: PubChem BioAssay AID328 (DTP/NCI, 2004)
